The source made the active and inactive calls.
Key:
cells [1] = assay type: functional, cell-based
[2] = target: T1, Trace amine-associated receptor 1 (Homo sapiens, UniProt Q96RJ0); assay: Fluorescence-based cell-based high throughput dose response assay to identify agonists of the human trace amine associated receptor 1 (TAAR1).; assay type: functional
T1 sequence (Q96RJ0 whole entry): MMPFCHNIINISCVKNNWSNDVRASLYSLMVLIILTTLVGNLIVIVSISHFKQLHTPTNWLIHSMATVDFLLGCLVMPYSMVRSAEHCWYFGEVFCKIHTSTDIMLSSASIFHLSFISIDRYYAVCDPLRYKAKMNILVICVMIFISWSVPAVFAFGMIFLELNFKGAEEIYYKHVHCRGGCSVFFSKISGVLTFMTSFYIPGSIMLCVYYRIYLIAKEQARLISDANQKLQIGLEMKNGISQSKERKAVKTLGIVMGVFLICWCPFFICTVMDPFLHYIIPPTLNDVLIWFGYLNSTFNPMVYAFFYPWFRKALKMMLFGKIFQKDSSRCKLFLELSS

[3] = target: T1, Trace amine-associated receptor 1; assay: Counterscreen for agonists of the human trace amine associated receptor 1 (hTAAR1): Fluorescence-based cell-based high throughput dose response assay to identify hTAAR1 agonist that also desensitize TAAR1 receptor response.; assay type: functional
cells [4] = assay type: functional, cell-based; remark: listed apart in the source
fMet-Leu-Phe receptor = fMet-Leu-Phe receptor (Homo sapiens, UniProt P21462); assay: FPR ligands, dose response (AID 519); assay type: functional
[5] = inhibitors of intracellular T. cruzi replication, confirmation, NIH3T3 host cells, beta-gal luminescence (AID 2044); assay type: functional, cell-based;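 further: intracellular parasites grown in NIH/3T3 mouse fibroblasts as host cells; luminescent beta-galactosidase reporter signal from transgenic T. cruzi replicating inside host cells; inhibitors lower the luminescence signal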
[6] = cytotoxicity toward NIH3T3 fibroblasts, dose response, counter-screen, cell-based, ATP luminescence, mouse fibroblasts (AID 2010); assay type: functional;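 further: cells exposed to compound for about 90 hours before reading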
[7] = target: T2, Methionyl-tRNA synthetase, putative (Trypanosoma brucei brucei, UniProt Q38C91); assay type: functional, Trypanosoma brucei brucei strain 927/4 GUTat10.1
T2 sequence (Q38C91 whole entry): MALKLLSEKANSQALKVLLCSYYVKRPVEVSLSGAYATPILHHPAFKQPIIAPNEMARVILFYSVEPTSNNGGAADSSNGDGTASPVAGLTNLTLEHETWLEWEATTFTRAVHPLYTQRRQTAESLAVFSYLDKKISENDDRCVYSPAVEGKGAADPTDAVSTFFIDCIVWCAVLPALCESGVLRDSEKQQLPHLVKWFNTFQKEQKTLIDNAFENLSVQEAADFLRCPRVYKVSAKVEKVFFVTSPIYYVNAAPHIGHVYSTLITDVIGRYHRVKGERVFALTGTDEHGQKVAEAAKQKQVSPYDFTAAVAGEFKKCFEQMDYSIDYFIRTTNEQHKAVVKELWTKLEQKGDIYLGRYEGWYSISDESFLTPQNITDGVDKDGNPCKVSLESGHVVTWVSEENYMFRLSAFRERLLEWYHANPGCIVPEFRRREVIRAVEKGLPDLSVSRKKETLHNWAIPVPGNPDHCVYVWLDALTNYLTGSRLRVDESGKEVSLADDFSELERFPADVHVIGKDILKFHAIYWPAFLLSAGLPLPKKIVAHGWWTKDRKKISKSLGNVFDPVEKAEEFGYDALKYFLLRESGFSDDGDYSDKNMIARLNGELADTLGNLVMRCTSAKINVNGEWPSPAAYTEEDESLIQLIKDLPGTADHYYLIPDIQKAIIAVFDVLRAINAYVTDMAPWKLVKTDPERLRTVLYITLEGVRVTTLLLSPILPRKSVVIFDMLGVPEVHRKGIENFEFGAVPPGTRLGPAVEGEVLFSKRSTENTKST

[8] = Counterscreen for inhibitors of Trypanosoma brucei methionyl tRNA synthetase (MetRS): Luminescence-based cell-based high throughput dose response assay to identify compounds that are cytotoxic to Jurkat human T lymphocyte cells.; assay type: functional
[9] = target: T2, Methionyl-tRNA synthetase, putative; assay type: functional, Trypanosoma brucei brucei strain 927/4 GUTat10.1; remark: listed apart in the source
[10] = target: Mitogen-activated protein kinase 10 (Homo sapiens, UniProt P53779); assay: Dose response biochemical screening assay for inhibitors of c-Jun N-Terminal Kinase 3 (JNK3). [Related pubchem assays: 746 ]
Major prion protein = Major prion protein (Homo sapiens, UniProt P04156); assay type: functional, cell-based
cells [11] = assay: cells
[12] = Luminescence-based cell-based high throughput dose response assay to identify activators of the DAF-12 from the parasite S. stercoralis (ssDAF-12).; assay type: functional
HEK293 [13] = assay: NOD1 signaling inhibitors, primary screen, cell-based, luminescence, uHTS (AID 1578); assay type: functional; settings: Homo sapiens
HEK293 [14] = assay: cells; assay type: functional, cell-based; settings: Homo sapiens
HEK293 [15] = assay: cells; assay type: functional, cell-based; settings: Homo sapiens; remark: listed apart in the source
[16] = target: Nucleotide-binding oligomerization domain-containing protein 2 (Homo sapiens, UniProt Q9HC29); assay: NOD2 signaling inhibitors, cell-based, luminescence, uHTS, HEK293 (AID 1566); assay type: functional
HEK293 [17] = assay: NOD2 signaling inhibitors in MDP-stimulated cells, cell-based, uHTS, luminescence (AID 2001); assay type: functional; settings: Homo sapiens
HEK293 [18] = assay: cells; assay type: functional, cell-based; settings: Homo sapiens; remark: listed apart in the source
[19] = target: T3, Replicative DNA helicase DnaB (Mycobacterium tuberculosis, UniProt P9WMR3); assay: DnaB intein splicing inhibitors, dose response, biochemical, cell-free fluorescence (AID 449749); assay type: functional
T3 sequence (P9WMR3 whole entry): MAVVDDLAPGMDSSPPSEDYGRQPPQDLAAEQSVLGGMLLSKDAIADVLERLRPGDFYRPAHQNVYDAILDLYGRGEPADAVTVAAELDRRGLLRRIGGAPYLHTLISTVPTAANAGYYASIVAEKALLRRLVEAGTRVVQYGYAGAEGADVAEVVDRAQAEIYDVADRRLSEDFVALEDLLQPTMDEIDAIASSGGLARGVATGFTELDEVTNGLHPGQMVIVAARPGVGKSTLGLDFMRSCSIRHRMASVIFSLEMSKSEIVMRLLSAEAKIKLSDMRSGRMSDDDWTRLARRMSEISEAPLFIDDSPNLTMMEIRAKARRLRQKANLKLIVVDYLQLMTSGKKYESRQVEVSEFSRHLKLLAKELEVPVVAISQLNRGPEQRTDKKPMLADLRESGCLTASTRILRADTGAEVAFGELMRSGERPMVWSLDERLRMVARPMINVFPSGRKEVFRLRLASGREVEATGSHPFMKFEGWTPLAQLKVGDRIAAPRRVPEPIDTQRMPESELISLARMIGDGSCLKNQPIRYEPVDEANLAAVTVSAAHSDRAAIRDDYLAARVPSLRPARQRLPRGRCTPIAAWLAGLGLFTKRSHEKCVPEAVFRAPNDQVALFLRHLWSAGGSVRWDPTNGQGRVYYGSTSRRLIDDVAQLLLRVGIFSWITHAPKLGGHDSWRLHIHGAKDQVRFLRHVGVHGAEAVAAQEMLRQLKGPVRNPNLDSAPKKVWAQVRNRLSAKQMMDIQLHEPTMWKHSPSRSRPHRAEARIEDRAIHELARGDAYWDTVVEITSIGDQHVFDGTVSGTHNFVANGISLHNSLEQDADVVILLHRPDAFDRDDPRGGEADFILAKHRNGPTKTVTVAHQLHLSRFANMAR

Protein RecA = target: T4, Protein RecA (Mycobacterium tuberculosis, UniProt P9WHJ3); assay: Fluorescence Cell-Free Homogeneous Dose Retest to Identify Inhibitors of RecA-Intein Splicing Activity. [Related pubchem assays (depositor defined):AID2097, AID2223, AID489010, AID492950]; assay type: functional
T4 sequence (P9WHJ3 whole entry): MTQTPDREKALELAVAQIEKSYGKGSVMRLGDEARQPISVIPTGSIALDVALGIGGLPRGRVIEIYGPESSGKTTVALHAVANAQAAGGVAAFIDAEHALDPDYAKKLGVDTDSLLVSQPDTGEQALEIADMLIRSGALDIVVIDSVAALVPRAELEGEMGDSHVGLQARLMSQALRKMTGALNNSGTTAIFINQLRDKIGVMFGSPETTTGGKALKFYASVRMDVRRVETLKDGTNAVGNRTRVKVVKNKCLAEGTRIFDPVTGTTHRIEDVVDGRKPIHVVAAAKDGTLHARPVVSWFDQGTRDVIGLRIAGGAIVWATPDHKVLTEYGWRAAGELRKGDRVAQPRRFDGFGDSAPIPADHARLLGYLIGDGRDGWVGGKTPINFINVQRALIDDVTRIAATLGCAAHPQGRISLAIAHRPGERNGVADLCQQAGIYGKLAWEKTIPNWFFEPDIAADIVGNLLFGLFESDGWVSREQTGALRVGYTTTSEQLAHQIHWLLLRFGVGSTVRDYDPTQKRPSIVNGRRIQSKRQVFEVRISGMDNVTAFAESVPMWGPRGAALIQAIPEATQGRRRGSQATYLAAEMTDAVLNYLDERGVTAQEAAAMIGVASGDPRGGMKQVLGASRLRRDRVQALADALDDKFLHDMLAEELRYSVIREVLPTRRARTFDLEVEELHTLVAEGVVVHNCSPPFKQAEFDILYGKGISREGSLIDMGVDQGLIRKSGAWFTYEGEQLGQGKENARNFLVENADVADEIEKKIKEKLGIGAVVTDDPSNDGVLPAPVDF

Chain of fMet-Leu-Phe receptor (P21462 whole entry): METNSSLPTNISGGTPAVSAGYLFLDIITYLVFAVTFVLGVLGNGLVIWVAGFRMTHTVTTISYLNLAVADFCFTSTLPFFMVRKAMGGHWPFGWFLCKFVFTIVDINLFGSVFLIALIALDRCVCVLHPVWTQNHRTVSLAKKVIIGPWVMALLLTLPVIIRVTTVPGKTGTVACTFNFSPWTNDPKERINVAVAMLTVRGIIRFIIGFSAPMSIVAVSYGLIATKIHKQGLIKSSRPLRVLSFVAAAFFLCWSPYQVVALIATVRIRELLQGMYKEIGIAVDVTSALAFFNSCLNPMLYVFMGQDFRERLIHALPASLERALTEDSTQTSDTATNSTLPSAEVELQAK
Chain of Nucleotide-binding oligomerization domain-containing protein 2 (Q9HC29 whole entry, the tested form may be a part): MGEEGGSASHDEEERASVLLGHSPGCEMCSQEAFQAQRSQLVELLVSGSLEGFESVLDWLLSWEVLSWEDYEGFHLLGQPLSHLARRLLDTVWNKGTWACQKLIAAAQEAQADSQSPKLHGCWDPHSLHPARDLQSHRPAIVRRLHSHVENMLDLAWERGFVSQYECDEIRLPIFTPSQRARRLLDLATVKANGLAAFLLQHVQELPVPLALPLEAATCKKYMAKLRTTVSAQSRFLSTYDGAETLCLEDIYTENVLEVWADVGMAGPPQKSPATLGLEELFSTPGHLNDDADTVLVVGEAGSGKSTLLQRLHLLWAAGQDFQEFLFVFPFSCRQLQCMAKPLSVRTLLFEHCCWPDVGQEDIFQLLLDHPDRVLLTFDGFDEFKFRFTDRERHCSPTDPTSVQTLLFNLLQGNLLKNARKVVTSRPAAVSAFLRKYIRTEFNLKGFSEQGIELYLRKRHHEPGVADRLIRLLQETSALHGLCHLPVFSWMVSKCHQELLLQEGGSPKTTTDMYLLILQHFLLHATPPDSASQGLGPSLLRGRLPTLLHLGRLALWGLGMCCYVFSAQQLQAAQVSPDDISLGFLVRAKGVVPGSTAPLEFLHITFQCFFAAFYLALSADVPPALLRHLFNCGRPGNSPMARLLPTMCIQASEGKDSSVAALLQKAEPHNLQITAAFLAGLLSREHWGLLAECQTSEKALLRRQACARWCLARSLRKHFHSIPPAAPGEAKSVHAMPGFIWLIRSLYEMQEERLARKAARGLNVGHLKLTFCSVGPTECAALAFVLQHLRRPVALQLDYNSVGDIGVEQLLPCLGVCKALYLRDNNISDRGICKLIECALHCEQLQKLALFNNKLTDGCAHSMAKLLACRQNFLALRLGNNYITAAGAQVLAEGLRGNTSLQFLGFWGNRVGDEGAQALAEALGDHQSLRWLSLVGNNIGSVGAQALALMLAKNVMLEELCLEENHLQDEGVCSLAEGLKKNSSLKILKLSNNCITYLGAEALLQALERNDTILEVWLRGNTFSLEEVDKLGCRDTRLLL
Chain of Mitogen-activated protein kinase 10 (P53779 whole entry): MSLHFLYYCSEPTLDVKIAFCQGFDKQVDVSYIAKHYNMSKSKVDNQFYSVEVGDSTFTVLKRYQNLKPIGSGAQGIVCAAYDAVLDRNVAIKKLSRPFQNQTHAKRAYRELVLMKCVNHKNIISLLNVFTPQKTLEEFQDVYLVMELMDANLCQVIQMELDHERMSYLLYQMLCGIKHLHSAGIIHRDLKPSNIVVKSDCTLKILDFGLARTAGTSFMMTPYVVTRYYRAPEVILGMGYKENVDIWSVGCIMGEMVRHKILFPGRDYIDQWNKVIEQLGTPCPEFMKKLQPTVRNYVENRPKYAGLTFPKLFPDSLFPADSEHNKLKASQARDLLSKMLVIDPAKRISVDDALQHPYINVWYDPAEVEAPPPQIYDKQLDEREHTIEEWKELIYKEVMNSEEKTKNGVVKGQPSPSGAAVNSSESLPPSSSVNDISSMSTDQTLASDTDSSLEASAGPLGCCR

In the case of `CC1=C(NCCc2ccccc2)CCC1=O`, the IC50 (cells [1]) is reported as > 29.9 µM (inactive), the EC50 [2] is reported as 1.16 µM (active) and the IC50 [3] is reported as 5.79 µM (active). The EC50 (cells [4]) was > 29.9 µM (inactive).
With `COCCCN1C(=O)C(O)=C(C(=O)c2ccco2)C1c1ccccc1` (configuration not stated) the Ki (fMet-Leu-Phe receptor) was 14.5 µM (active).
For `O=C(CCNS(=O)(=O)c1ccc(Br)s1)Nc1ccc(Cl)cc1`, the EC50 [5] was 3.44 µM (active), the EC50 [6] was > 60 µM (inconclusive) and the IC50 [7] was 3.53 µM (active). The IC50 [8] was 83.3 µM (inactive) and the IC50 [9] was 1.85 µM (active).
With `COc1ccc(CN(C(=O)c2ccccc2OC)C2CCS(=O)(=O)C2)cc1` (configuration not stated) the Ki (fMet-Leu-Phe receptor) was > 66.7 µM (inactive).
In the case of `CSCCC(Nc1ncnc2ccc(Br)cc12)C(=O)O` (configuration not stated), the IC50 [10] is reported as 45 µM (not active), the IC50 (Major prion protein) is reported as 1.91 µM (active) and the IC50 (cells [11]) is reported as > 138 µM (inactive).
In the case of `COc1ccc2c(C)cc(SCC(=O)c3ccc4c(c3)OCO4)nc2c1`, the EC50 [5] is reported as 1.53 µM (active), the EC50 [6] is reported as > 60 µM (not active) and the IC50 [12] is reported as > 67.5 µM (inactive).
With `S=C(NCCSCc1ccc(Cl)cc1)Nc1ccccc1` the IC50 [7] was 8.52 µM (active), the IC50 [8] was 83.3 µM (inactive) and the IC50 [9] was 11.7 µM (inactive).
In the case of `Cc1cc(C(=O)CCl)c(C)n1CCc1ccccc1`, the EC50 (HEK293 [13]) is reported as 13.1 µM (active), the IC50 (HEK293 [14]) is reported as 5.94 µM (active) and the IC50 (HEK293 [15]) is reported as 18 µM (active). For the same molecule, the EC50 [16] was > 20 µM (inactive), the IC50 (HEK293 [17]) was 13.4 µM (inactive) and the IC50 (HEK293 [18]) was > 20 µM (inactive). For the same molecule, the AC50 [19] was 16.9 µM (active), the EC50 (Protein RecA) was 24.4 µM (active) and the IC50 (cells [1]) was > 29.9 µM (inactive). The EC50 [2] was 1.86 µM (active), the IC50 [3] was 9.06 µM (active) and the EC50 (cells [4]) was > 29.9 µM (inactive).
